In one series the target is Kv1.3 (UniProt P16390). Description: Whole-cell patch-clamp block of Kv1.3 current. It is filed as cell-based. The conditions noted are these: for Kd: L929 cells stably expressing mKv1.3 or activated human T cells, fit of normalized peak current to Hill equation. As for the experimental part: The effectiveness of the generated compounds in blocking the Kv1.3 current was assayed on L929 cells stably expressing mKv1.3 or on activated human T cells. The generation of this cell line has been previously described (Grissmer et al. (1995) Mol. Pharmacol. 45: 1227). The cells were grown in Dulbecco's modified Eagle's medium containing 10% fetal calf serum, 2 mM L-glutamine, 1 mM Na^+ pyruvate, 100 units/ml penicillin, 100 μg/ml streptomycin and 250 μg G418 (to keep them under selection pressure). The cells were studied in the whole-cell configuration of the patch-clamp technique. The holding potential in all experiments was −80 mV. Currents were recorded in normal Ringer solution (160 mM NaCl, 4.5 mM KCl, 2 mM CaCl2, 1 mM MgCl2, 10 mM HEPES, pH 7.4, 290-310 mOsm) with an internal pipette solution containing 134 mM KF, 2 mM MgCl2, 10 mM HEPES, 10 mM EGTA (pH 7.2, 290-310 mOsm). If currents exceeded 2 nA 60-80% series resistance compensation was used. 200-ms depolarising pulses to 40 mV were applied every 30 s (Grissmer at al. (1995) Mol. Pharmacol. 45: 1227). Each compound was tested twice at two different concentrations. Kd values were determined by fitting the reduction of the normalized peak current to the Hill equation. […]

A further series deals with Kv1.2 (Homo sapiens, UniProt P16389). The series is described as follows: Whole-cell patch-clamp, Kv1.2. It is filed as cell-based.
Kv1.2, sequence (P16389 whole entry): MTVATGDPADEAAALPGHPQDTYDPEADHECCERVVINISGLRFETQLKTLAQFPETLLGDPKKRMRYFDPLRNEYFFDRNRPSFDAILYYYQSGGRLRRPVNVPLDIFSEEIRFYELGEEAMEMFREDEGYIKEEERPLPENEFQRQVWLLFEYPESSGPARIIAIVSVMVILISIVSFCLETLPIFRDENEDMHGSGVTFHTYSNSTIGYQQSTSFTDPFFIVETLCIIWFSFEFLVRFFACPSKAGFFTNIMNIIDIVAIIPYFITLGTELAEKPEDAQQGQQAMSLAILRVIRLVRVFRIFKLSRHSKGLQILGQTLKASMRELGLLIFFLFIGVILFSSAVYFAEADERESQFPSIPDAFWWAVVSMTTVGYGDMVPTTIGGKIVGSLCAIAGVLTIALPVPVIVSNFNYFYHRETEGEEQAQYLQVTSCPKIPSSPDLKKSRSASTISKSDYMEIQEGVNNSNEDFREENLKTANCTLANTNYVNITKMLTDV
Series [1] is described as follows: Solubility in aqueous media. The series is classed as physicochemical. The conditions noted are these: judged by whether testable in the cell-based T-cell proliferation assay. The source says:
(§1) The comparative example 4 was thus considered to lack therapeutically use.
This was unexpected given the lipophilicity of these compounds. The n-butyl fragment in example 2 is considerably more lipophilic than the phenyl group located in the equivalent position of comparative example 4 (fragment hydrophobicity value 2.5 verses 1.9 respectively).

In a further series the target is Kv1.1 (Homo sapiens, UniProt Q09470). The series is described as follows: Whole-cell patch-clamp, Kv1.1. The series is classed as cell-based.
Kv1.1, sequence (Q09470 whole entry): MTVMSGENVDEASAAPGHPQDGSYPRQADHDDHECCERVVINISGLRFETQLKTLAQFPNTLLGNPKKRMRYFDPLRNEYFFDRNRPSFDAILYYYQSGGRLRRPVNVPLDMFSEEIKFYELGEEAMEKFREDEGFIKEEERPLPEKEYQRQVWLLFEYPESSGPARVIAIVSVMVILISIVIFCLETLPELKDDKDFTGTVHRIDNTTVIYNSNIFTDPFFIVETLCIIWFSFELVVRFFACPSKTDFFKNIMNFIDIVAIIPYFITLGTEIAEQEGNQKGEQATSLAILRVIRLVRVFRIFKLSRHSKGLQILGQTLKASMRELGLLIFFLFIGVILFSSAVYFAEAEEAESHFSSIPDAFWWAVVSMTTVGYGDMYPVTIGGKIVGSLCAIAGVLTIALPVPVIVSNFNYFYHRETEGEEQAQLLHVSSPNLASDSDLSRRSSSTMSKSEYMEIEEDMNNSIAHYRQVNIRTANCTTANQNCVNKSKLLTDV
For series [2], the system named is peripheral blood mononuclear cells. Description: [3H]-Thymidine incorporation assay. The series is classed as cell-based, human. The following applies: anti-CD3 stimulated PBMC, 48 h; for Normalised [3H]-TdR incorporation: untreated control = 1. The procedure: [^3H]-thymidine incorporation is a widely used test to assay the proliferative activity of human and rodent lymphocytes. As cells divide [^3H]-thymidine will be incorporated into the newly synthesised DNA of the resulting daughter cells. The faster cells grow the more radioactive [^3H]-thymidine will be incorporated. Any compound that inhibits lymphocytes proliferation will reduce the uptake of radioactivity by the cells treated with it compared to the untreated controls.
Example 2 was tested to determine its ability to inhibit [H]-thymidine incorporation. Resting peripheral blood mononuclear cells from healthy volunteers were seeded at 2×10^5 cells per well in medium (RPMI 1640 supplemented 10% fetal calf serum, 2 mM glutamine, 1 mM sodium pyruvate, 1% nonessential amino acids, 100 units/ml penicillin, 100 μg/ml streptomycin and 50 μM β-mercaptoethanol) in flat-bottom 96 well plates (final volume 200 μl). Cells were pre-incubated with the compound of example 2 for 60 min, and were stimulated with 5 ng/ml anti-CD3 Ab) for 48 h. [^3H]-Thymidine (1 μCi per well) was added for the last 6 h. Cells were harvested onto glass fibre filters and radioactivity measured in a scintillation counter. All experiments were done in triplicate.

A further series deals with Kv1.4 (Homo sapiens, UniProt P22459). The series is described as follows: Whole-cell patch-clamp, Kv1.4. The series is classed as cell-based.
Kv1.4, sequence (P22459 whole entry): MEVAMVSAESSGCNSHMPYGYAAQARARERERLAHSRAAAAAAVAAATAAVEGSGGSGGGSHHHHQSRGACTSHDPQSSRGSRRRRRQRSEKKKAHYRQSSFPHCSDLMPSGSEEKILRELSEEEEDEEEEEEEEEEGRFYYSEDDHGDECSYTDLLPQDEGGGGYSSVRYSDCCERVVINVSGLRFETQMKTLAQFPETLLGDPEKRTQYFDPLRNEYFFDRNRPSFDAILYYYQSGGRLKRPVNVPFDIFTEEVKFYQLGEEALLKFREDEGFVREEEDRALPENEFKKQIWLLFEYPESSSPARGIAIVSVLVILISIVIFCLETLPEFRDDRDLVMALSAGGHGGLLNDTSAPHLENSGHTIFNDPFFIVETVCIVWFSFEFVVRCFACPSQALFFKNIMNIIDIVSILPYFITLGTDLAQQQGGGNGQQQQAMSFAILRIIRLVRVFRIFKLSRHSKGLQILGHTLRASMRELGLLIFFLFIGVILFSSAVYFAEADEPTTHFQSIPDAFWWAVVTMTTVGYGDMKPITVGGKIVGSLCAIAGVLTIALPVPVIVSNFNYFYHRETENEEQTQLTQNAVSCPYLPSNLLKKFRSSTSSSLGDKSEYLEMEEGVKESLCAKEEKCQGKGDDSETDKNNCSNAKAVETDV
The next series has as its target Kv1.5 (Homo sapiens, UniProt P22460). Description: Whole-cell patch-clamp, Kv1.5. It is filed as cell-based.
The target in another series is IKCa1 (Homo sapiens, UniProt O15554). The series is described as follows: Whole-cell patch-clamp, IKCa1. It is filed as cell-based.
Another series concerns the target SKMI (Homo sapiens, UniProt P35499). The series is described as follows: Whole-cell patch-clamp, SKMI. The series is classed as cell-based. The conditions noted are these: at 10 μM.
A further series can be described thus: Stability. The series is classed as physicochemical.
Text: as §1

Here are results for 12 molecules from patent US7507839B2, “Therapeutic ion channel blocking agents and methods of use thereof” (The Walter and Eliza Hall Institute of Medical Research, priority 2002, dated 2009).

SKMI, sequence (P35499 whole entry): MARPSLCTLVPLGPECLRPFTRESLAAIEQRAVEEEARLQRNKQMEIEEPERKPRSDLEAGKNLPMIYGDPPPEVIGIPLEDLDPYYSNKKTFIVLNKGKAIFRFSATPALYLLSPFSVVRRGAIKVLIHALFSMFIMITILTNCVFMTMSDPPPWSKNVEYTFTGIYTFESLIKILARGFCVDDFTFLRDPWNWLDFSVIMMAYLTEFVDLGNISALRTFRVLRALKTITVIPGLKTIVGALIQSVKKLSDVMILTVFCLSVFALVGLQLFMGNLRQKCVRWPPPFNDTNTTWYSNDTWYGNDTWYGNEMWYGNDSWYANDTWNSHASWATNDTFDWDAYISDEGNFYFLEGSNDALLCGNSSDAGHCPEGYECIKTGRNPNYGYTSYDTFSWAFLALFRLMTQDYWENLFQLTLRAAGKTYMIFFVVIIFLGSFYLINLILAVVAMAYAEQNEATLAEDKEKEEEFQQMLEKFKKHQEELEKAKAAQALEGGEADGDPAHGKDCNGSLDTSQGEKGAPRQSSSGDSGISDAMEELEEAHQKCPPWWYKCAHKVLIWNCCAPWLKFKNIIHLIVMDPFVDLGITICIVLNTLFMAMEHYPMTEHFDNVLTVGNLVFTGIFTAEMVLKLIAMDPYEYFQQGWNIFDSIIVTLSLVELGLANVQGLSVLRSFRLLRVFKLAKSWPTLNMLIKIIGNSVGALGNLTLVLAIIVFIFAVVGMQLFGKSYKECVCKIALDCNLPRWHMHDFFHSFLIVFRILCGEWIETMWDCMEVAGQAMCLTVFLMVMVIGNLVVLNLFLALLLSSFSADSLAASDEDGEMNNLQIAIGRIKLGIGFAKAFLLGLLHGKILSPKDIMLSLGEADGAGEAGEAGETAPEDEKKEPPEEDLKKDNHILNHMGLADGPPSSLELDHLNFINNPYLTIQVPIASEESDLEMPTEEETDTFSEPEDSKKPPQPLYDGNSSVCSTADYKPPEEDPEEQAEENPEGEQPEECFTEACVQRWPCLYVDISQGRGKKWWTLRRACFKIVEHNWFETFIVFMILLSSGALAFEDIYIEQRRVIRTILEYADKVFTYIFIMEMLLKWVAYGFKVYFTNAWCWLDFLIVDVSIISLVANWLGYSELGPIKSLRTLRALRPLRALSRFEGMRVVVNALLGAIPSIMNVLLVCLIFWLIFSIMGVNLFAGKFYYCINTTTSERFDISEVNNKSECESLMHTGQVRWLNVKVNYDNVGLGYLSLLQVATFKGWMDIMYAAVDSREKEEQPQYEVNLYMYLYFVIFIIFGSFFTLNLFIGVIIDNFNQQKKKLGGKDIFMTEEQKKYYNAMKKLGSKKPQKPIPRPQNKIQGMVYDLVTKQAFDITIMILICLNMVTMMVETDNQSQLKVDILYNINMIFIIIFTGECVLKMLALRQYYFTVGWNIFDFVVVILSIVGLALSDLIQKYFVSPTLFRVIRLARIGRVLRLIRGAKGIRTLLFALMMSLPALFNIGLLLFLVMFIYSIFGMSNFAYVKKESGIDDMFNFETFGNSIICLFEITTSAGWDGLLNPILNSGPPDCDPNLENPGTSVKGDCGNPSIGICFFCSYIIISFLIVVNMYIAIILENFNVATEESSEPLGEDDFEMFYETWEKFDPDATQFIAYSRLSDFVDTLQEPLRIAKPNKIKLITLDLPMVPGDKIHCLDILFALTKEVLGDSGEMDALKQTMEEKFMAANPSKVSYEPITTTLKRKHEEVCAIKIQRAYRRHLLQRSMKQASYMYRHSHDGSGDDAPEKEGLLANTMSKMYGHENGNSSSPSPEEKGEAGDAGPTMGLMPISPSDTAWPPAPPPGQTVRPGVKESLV
Kv1.5, sequence (P22460 whole entry): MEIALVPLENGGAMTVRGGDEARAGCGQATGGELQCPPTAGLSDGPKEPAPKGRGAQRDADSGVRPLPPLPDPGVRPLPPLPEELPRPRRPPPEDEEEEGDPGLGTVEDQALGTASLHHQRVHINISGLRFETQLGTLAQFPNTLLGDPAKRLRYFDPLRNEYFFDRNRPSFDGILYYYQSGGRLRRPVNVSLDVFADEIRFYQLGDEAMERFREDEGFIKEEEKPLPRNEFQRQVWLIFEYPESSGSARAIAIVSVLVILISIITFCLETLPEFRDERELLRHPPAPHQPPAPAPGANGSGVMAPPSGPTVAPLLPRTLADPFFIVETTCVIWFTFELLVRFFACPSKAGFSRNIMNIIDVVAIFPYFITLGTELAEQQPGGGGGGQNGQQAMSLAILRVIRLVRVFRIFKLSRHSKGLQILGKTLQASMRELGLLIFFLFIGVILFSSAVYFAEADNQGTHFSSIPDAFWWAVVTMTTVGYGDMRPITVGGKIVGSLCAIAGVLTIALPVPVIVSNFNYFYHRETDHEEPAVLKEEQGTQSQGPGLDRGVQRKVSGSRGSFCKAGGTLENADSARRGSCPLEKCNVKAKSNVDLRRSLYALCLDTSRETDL

Consider `COc1c(C(C)=O)c(O)c(OC)c2occc12` [Comparative Example 1 (Khellinone)], for which the Kd on Kv1.3 turned out to be 70000 nM.

On Kv1.3, `COc1c2occc2cc2ccc(=O)oc12` [Comparative Example 2 (3-MOP)] returned a Kd of 160000 nM.

Take `COc1c(C(C)=O)c(OCCCCCOc2c(C(C)=O)c(OC)c3ccoc3c2OC)c(OC)c2occc12` [Example 1]: the Kd at Kv1.3 worked out at 820 nM; on Kv1.2, 1500 nM. In [1], the “Solubility in aqueous media” value is given as “soluble enough in aqueous media to be tested”.

As to `COc1c(C(C)=O)c(OCCCCCCOc2c(C(C)=O)c(OC)c3ccoc3c2OC)c(OC)c2occc12` [Example 2], the “Kind of block (Kv1.3)” value on Kv1.3 was “Block phasic”. In addition, the Kd on Kv1.3 stood at 680 nM; at Kv1.1 it was 320 nM; at Kv1.2, 250 nM. Further, the “Normalised [3H]-TdR incorporation” value in series [2] (100 nM) was 0.86 +/− 0.04; in series [2] (250 nM), 0.76 +/− 0.06; in [2] (1 μM), 0.38 +/− 0.05; in series [2] (10 μM), 0.01 +/− 0.003. In series [2] (Homo sapiens, read-out: EC50, inhibition of [3H]-thymidine incorporation), the EC50 is about 800 nM. For the same molecule, the “Solubility in aqueous media” value in series [1] was “soluble enough in aqueous media to be tested”.

At Kv1.3, `COc1c(C(C)=O)c(OCc2ccc(COc3cc4occc4c(OC)c3C(C)=O)cc2)cc2occc12` [Example 4, 1,4-bis(5-acetyl-4-methoxybenzofuran-6-yloxymethyl)benzene] came in with a Kd of 1100 nM. In addition, the “Effect on Kv1.2” value at Kv1.2 (at 5 μM) is given as “No effect”.

`COc1c(C(C)=O)c(OCCOCCOc2c(C(C)=O)c(OC)c3ccoc3c2OC)c(OC)c2occc12` [Example 5] returned a Kd at Kv1.3 of 4000 nM. Besides, the “Solubility in aqueous media” value in [1] is “significantly more soluble in aqueous conditions than comparative example 2”.

As to `COC(=O)c1cc(COc2c(C(C)=O)c(OC)c3ccoc3c2OC)ccc1COc1c(C(C)=O)c(OC)c2ccoc2c1OC` [Example 7, 2,5-Bis(5-acetyl-4,7-dimethoxy-6-benzofuran-6-yloxymethyl)benzoic acid, methyl ester], the melting point lay in the range of 87 to 89 °C. Besides, the Kd at Kv1.3 is 3000 nM.

At Kv1.3, `COc1c(C(C)=O)c(OCc2ccc(COc3c(C(C)=O)c(OC)c4ccoc4c3OC)c(C(=O)O)c2)c(OC)c2occc12` [Example 8, 2,5-Bis(5-acetyl-4,7-dimethoxybenzofuran-6-yloxymethyl)benzoic acid] gave a Kd of 5000 nM. This counts as single-digit micromolar.

As to `O=c1ccc2cc3ccoc3c(OCc3ccc(COc4c5occc5cc5ccc(=O)oc45)cc3)c2o1` [compound 3, reference compound], the Kd at Kv1.3 is 17000 nM.

As to `COc1c(C(C)=O)c(OCc2ccc(COc3c(C(C)=O)c(OC)c4ccoc4c3OC)cc2)c(OC)c2occc12` [compound 4], the Kd was 280 nM on Kv1.3; 3000 nM on Kv1.1; 5000 nM at Kv1.2; 2200 nM on Kv1.4; 1100 nM at Kv1.5; over 20000 nM on IKCa1. Moreover, the “Effect on SKMI” value at SKMI was “No effect”. The “Solubility in aqueous media” value in [1] is “so poorly soluble in aqueous media”. Also, the Stability entry in “Stability” was “good stability”.

With `COc1c(C(C)=O)c(OCc2cccc(COc3c(C(C)=O)c(OC)c4ccoc4c3OC)c2)c(OC)c2occc12` [compound 5, reference compound], the Kd on Kv1.3 amounted to 560 nM.

`COc1c(C(C)=O)c(OCc2ccccc2COc2c(C(C)=O)c(OC)c3ccoc3c2OC)c(OC)c2occc12` [compound 6, reference compound]: the Kd on Kv1.3 was 7000 nM.
